Data on one molecule can be found in patent US20240279710A1, “FLUORESCENT PROBES” (TOHOKU TECHNO ARCH CO., LTD., priority 2021, published 2024).

A short description of data set [1]: Optical characteristics: absorption and fluorescence spectrum at each pH. The class given is physicochemical. The note with it: 10 mM phosphate buffer, pH 2 to 11, 1 μM probe, 1% DMSO, excitation 490 nm; neutral condition. The procedure:
The absorption spectrum and fluorescence spectrum of Compound 19 at each pH were each measured. Specifically, a measurement solution was prepared by adding a solution (0.1 mM) of Compound 19 in DMSO to a 10 mM phosphate buffer at each pH in the pH range of from 2 to 11 so that the final probe concentration became 1 μM, and the final DMSO concentration became 1%. The fluorescence spectrum of the measurement solution was measured at an excitation wavelength of 490 nm.

The target of data set [2] is T1, calpain-1 from human erythrocytes (Homo sapiens, UniProt P07384).
T1 construct: calpain-1 from human erythrocytes; purchased Merck Millipore 208713; host or cells: human erythrocytes (natural source)
T1 sequence (P07384 1-714): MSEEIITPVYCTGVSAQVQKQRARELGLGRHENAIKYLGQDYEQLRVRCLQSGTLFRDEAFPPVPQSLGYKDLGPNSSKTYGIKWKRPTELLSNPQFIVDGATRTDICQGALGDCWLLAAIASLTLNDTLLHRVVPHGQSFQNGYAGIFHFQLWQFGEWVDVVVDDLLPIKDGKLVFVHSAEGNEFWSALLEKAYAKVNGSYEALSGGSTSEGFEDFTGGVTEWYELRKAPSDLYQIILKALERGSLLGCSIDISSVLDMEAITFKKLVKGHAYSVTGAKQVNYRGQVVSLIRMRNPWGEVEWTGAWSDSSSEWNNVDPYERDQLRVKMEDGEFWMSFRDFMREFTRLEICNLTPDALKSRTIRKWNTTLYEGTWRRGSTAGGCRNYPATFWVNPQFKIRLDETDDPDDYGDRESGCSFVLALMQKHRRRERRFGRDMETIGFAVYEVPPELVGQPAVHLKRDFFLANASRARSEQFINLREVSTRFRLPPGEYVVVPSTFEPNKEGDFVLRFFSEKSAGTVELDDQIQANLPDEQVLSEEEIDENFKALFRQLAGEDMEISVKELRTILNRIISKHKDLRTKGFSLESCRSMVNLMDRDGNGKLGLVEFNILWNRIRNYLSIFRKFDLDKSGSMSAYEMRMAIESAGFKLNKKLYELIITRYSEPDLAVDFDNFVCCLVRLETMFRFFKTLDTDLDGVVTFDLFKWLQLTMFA
T1 sequence (P04632 1-268 partner): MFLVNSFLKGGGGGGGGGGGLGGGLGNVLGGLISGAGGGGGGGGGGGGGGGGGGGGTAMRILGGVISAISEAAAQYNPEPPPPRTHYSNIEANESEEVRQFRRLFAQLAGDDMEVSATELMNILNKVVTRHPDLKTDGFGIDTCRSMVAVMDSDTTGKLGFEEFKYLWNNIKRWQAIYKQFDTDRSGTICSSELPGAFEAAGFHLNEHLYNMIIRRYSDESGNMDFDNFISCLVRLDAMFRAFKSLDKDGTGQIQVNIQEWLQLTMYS
Nature of the data set: Reactivity with calpain-1: absorption/fluorescence spectra and HPLC. The class given is biochemical. The note with it: 5 μM probe, calpain-1 100 units. The procedure:
Calpain-1 was caused to act on Compound 19, and changes in absorption spectrum and fluorescence spectrum thereof were measured. Specifically, a solution (0.5 mM) of Compound 19 in DMSO and calpain-1 (100 units) (calpain-1 from human erythrocytes, Cat. No. 208713, Merck Millipore, the same holds true for the following) were added to a 50 mM TRIS buffer (pH: 7.4, 5 mM CaCl2, 100 mM NaCl, 1 mM EGTA) to produce 2 mL of a reaction solution (final probe concentration: 5 μM). An enzyme reaction was performed at 37° C. The fluorescence spectrum of the reaction solution was measured at an excitation wavelength of 490 nm. In addition, the reaction solution was analyzed by HPLC chromatography. Compound 19 to which calpain-1 was not added (final concentration: 5 μM) was used as a control.

Consider `COCC(=O)N[C@@H](CC(C)C)C(=O)N[C@@H](CCSC)C(=O)Nc1ccc2c(c1)Oc1cc(N)ccc1C21OCc2ccccc21` (stereo partly drawn) [Compound 19], for which the “absorption spectrum and fluorescence spectrum at each pH” value in data set [1] was “mainly colorless and nonfluorescent”. Moreover, in data set [2] (50 mM TRIS pH 7.4, 5 mM CaCl2, 37° C., excitation 490 nm), the “changes in absorption spectrum and fluorescence spectrum by addition of calpain-1” value is “increases in absorbance and fluorescence intensity”. In addition, the “change in HPLC chromatogram by addition of calpain-1 (reaction product)” value in data set [2] (37° C.) was “produced HMRG serving as a fluorescent substance”.
